From patent US20260008775A1, “AZOLE MODULATORS OF CHOLESTEROL BIOSYNTHESIS AND THEIR USE FOR PROMOTING REMYELINATION” (GENENTECH, INC., priority 2022, published 2026)
Where two headings read alike, the source gives them in different places.

What was measured:
[1] = target: human emopamil binding protein and human 7-dehydrocholesterol reductase (hEBP-DHCR7) (Homo sapiens (Human), UniProt Q15125); assay: hEBP-DHCR7 radioligand binding assay (filter binding, membranes of co-expressing HEK293 cells); settings: competition with [3H] radioligand, 8 doses 0.06 to 5000 nM, Ki calculated from IC50
Procedure, shortened: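 Compound, either single dose 1 μM or eight 5-fold dilutions from 0.06 to 5000 nM, competed with a [3H]-labelled ligand added at 25 nM for binding to co-expressing HEK293 membranes. IC50 came from nonlinear regression, with full block and DMSO as controls, then Cheng–Prusoff conversion to Ki.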

[2] = tested on: zymostenol accumulation (EBP) in EpiSC-derived OPCs; assay: GC/MS-based sterol profiling, zymostenol accumulation in EpiSC-derived OPCs; type: cell-based, mouse; settings: for EC50: EpiSC-derived OPCs, 24 hr, 8 doses from 0.15 nM to 333 nM, read-out: Mouse Zymostenol GCMS EC50
Procedure, shortened: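 Zymostenol level is expressed relative to that after 24 h with 100 nM positive-control reference, measured by full-scan GC/MS (m/z 458) with cholesterol-d7 internal standard after BSTFA derivatisation. Cells were EpiSC-derived OPCs, 100,000/well in N2B27 without growth factors, treated 24 h, from two or more independent platings.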

EpiSC-derived OPCs = assay: In vitro phenotypic screening of OPCs, MBP high-content imaging (percentage of oligodendrocytes); type: cell-based, mouse; settings: for EC50: 3 days, MBP stain, dose-response 0.5 nM to 1000 nM, read-out: OPC EC50
Description: To assess effects of treatments on OPCs, all treatments were assayed in two or more independent platings of epiblast stem cell-derived OPCs (EpiSC). EpiSC-derived OPCs were obtained using in vitro differentiation protocols and culture conditions described previously (Najm et al, 2011, Nature Methods). OPCs were expanded and frozen down in aliquots. OPCs were thawed into growth conditions for at least one passage before use in further assays.
EpiSC-derived OPCs were grown and expanded in poly-L-ornithine (PO) and laminin-coated flasks in N2B27 media (DMEM/F12 (Gibco), N2-MAX (R&D Systems), B-27 (ThermoFisher), and GlutaMax (Gibco)) supplemented with FGF2 (10 μg/mL, R&D systems, 233-FB-025) and PDGF-AA (10 μg/mL, R&D systems, 233-AA-050) before harvesting for experiments. The cells were seeded onto poly-L-ornithine or poly-D-lysine coated CellCarrier Ultra plates (PerkinElmer) coated with laminin (Sigma, L2020) at a density of 150,000/cm^2 in N2B27 media without growth factors. For dose-response testing, a 1000× compound stock in dimethyl sulphoxide (DMSO) was added to assay plates, resulting in 8-point dose curves with final concentrations between 1000 nM and 0.5 nM. Positive controls and DMSO vehicle controls were included in each assay plate. Cells were incubated under standard conditions (37° C., 5% CO2) for 3 days and fixed with 4% paraformaldehyde (PFA) in phosphate buffered saline (PBS) for 20 min. Fixed plates were washed with PBS, permeabilized with 0.1% Triton X-100, and blocked with 10% donkey serum (v/v) in PBS for 40 min. Then, cells were labelled with MBP antibodies (Abcam, ab7349; 1:200) for 2 h at room temperature, washed with PBS, and stained with Alexa Fluor conjugated secondary antibodies (1:500) for 45 min. Nuclei were visualized by DAPI staining (Sigma; […]), followed by further PBS washes.
Cells and cell culture plates were imaged on the Operetta High Content Imaging and Analysis system (PerkinElmer). Analysis (PerkinElmer Harmony and Columbus software) began by identifying intact nuclei stained by DAPI. The peri-nuclear region of each cell was then cross-referenced with the mature myelin protein (MBP) stain to identify oligodendrocyte nuclei, and from this the percentage of oligodendrocytes was calculated. EC50 values were calculated using The Levenberg-Marquardt algorithm to fit a Hill equation to dose-response data (0.5 nM to 1000 nM).

human emopamil binding protein and human 7-dehydrocholesterol reductase (hEBP-DHCR7), sequence (Q15125 whole entry): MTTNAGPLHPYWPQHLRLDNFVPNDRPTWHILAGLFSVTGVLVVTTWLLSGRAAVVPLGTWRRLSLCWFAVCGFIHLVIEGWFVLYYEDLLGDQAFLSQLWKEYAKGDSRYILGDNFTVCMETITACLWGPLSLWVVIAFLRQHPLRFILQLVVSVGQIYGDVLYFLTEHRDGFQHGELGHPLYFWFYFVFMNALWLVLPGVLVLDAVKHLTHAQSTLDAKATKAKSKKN

Row | SMILES | Ki [1] | EC50 ([2]; Mus musculus, 24 h) | EC50 (EpiSC-derived OPCs; Mus musculus, 72 h) | EC50 [2] | EC50 (EpiSC-derived OPCs) | fold decrease in activity in the mouse zymostenol assay ([2]; as compared to compound 29*) | fold decrease in activity in the OPC assay (EpiSC-derived OPCs; as compared to compound 29*)
1 | FC(F)(F)c1cccc(-c2nc([C@H]3CC[C@H](N4CCCOCC4)C3)n(C3CC3)n2)n1 (single isomer, unassigned) [9*] | 113 nM | 21.4 nM | 73.4 nM | – | – | – | –
2 | FC(F)(F)c1cccc(-c2nc([C@@H]3CC[C@@H](N4CCCOCC4)C3)n(C3CC3)n2)n1 (single isomer, unassigned) [11*] | 134 nM | 19.7 nM | 108 nM | – | – | – | –
3 | FC(F)(F)c1cccc(-c2nc([C@@H]3CC[C@H](N4CCCOCC4)C3)n(C3CC3)n2)n1 (single isomer, unassigned) [12*] | 120 nM | 64 nM | 63.8 nM | – | – | – | –
4 | CC(C)n1nc(-c2cccc(C(F)(F)F)c2)nc1[C@H]1CC[C@H](N2CCOCC2)C1 (single isomer, unassigned) [23*] | 15.5 nM | – | – | 13.1 nM | 132 nM | – | –
5 | CC(C)n1nc(-c2cccc(C(F)(F)F)c2)nc1[C@H]1CC[C@H](N2CCOCC2)C1 (single isomer, unassigned) [24*] | 8.9 nM | – | – | 1.65 nM | 11.3 nM | – | –
6 | CC(C)n1nc(-c2cncc(C(F)(F)F)c2)cc1[C@H]1[C@@H]2C[C@@H](N3C[C@H]4C[C@@H]3CO4)C[C@@H]21 (single isomer, unassigned) [35*] | 112 nM | 30 nM | 175 nM | – | – | – | –
7 | CC(C)n1nc(-c2cncc(C(F)(F)F)c2)cc1[C@H]1[C@@H]2C[C@@H](N3C[C@@H]4C[C@H]3CO4)C[C@@H]21 (single isomer, unassigned) [36*] | 211 nM | 230 nM | 144 nM | – | – | – | –
8 | CC(C)n1nc(-c2cncc(C(F)(F)F)c2)cc1[C@H]1[C@@H]2C[C@H](N3C[C@H]4C[C@@H]3CO4)C[C@@H]21 (single isomer, unassigned) [37*] | 33 nM | 18 nM | 98 nM | – | – | – | –
9 | CC(C)n1nc(-c2cncc(C(F)(F)F)c2)cc1[C@H]1[C@@H]2C[C@@H](N3CCO[C@@H](C)C3)C[C@@H]21 (single isomer, unassigned) [39*] | 771 nM | 255 nM | 523 nM | – | – | – | –
10 | CC(C)n1nc(-c2cncc(C(F)(F)F)c2)cc1[C@H]1[C@@H]2C[C@@H](N3CCO[C@H](C)C3)C[C@@H]21 (single isomer, unassigned) [40*] | 111 nM | 78 nM | 325 nM | – | – | – | –
11 | CC(C)n1nc(-c2cccc(C(F)(F)F)c2)nc1[C@H]1[C@@H]2C[C@@H](N3CCCOCC3)C[C@@H]21 [Compound 14, 4-((1R,3s,5S,6r)-6-(1-isopropyl-3-(3-(trifluoromethyl)phenyl)-1H-1,2,4-triazol-5-yl)bicyclo[3.1.0]hexan-3-yl)-1,4-oxazepane] | – | 40.2 nM | 81.3 nM | – | – | – | –
12 | CC(C)n1nc(-c2ccc(C(F)(F)F)nc2)nc1[C@H]1[C@@H]2C[C@@H](N3CCCOCC3)C[C@@H]21 [Compound 16, 4-((1R,3s,5S,6r)-6-(1-isopropyl-3-(6-(trifluoromethyl)pyridin-3-yl)-1H-1,2,4-triazol-5-yl)bicyclo[3.1.0]hexan-3-yl)-1,4-oxazepane] | – | 203 nM | 333 nM | – | – | – | –
13 | CC(C)n1nc(-c2cccc(OC(F)(F)F)c2)nc1[C@H]1[C@@H]2C[C@@H](N3CCCOCC3)C[C@@H]21 [Compound 18, 4-((1R,3s,5S,6r)-6-(1-isopropyl-3-(3-(trifluoromethoxy)phenyl)-1H-1,2,4-triazol-5-yl)bicyclo[3.1.0]hexan-3-yl)-1,4-oxazepane] | – | 52.8 nM | 78.5 nM | – | – | – | –

Continued by falling EC50 ([2]; Mus musculus, 24 h), values first:

Row | Ki [1] | EC50 ([2]; Mus musculus, 24 h) | EC50 (EpiSC-derived OPCs; Mus musculus, 72 h) | EC50 [2] | EC50 (EpiSC-derived OPCs) | SMILES | fold decrease in activity in the mouse zymostenol assay ([2]; as compared to compound 29*) | fold decrease in activity in the OPC assay (EpiSC-derived OPCs; as compared to compound 29*)
14 | 95.8 nM | 18 nM | 54.2 nM | – | – | FC(F)(F)c1cccc(-c2nc([C@H]3CC[C@@H](N4CCCOCC4)C3)n(C3CC3)n2)n1 (single isomer, unassigned) [10*] | – | –
15 | – | 15.6 nM | 75 nM | – | – | CC(C)n1nc(-c2cnc(N)c(C(F)(F)F)c2)cc1[C@H]1[C@@H]2C[C@H](N3CCCOCC3)C[C@@H]21 [Compound C, reference compound] | 4.9 fold | 3.8 fold
16 | 32.5 nM | 14.8 nM | 90 nM | – | – | CC(C)n1nc(-c2cncc(C(F)(F)F)c2)cc1[C@H]1[C@@H]2CC(N3CCCOCC3)C[C@@H]21 (single isomer, unassigned) [30*] | – | –
17 | 47.6 nM | 9.32 nM | 71 nM | – | – | CC(C)n1nc(-c2cncc(C(F)(F)F)c2)cc1[C@H]1[C@@H]2C[C@H](N3C[C@@H]4C[C@H]3CO4)C[C@@H]21 (single isomer, unassigned) [38*] | – | –
18 | 23.6 nM | 9 nM | 43.9 nM | – | – | CC(C)n1nc(-c2cncc(C(F)(F)F)c2)cc1[C@H]1[C@@H]2C[C@H](N3CCO[C@H](C)C3)C[C@@H]21 (single isomer, unassigned) [42*] | – | –
19 | 29.9 nM | 8.11 nM | 80.4 nM | – | – | CC(C)n1nc(-c2cc(C(F)(F)F)ccn2)nc1[C@@H]1CC[C@H](N2CCOCC2)C1 (single isomer, unassigned) [28*] | – | –
20 | 27.1 nM | 7.71 nM | 51.7 nM | – | – | CC(C)n1nc(-c2cccc(C(F)(F)F)c2)nc1[C@@H]1CC[C@@H](N2CCOCC2)C1 (single isomer, unassigned) [21*] | – | –
21 | – | 7.51 nM | 35 nM | – | – | CC(C)n1nc(-c2ccc(C(F)(F)F)cn2)cc1[C@H]1[C@@H]2C[C@H](N3CCOCC3)C[C@@H]21 [Compound 174, 4-((1R,3r,5S,6r)-6-(1-Isopropyl-3-(5-(trifluoromethyl)pyridin-2-yl)-1H-pyrazol-5-yl)bicyclo[3.1.0]hexan-3-yl)morpholine] | – | –
22 | – | 5.98 nM | 22.4 nM | – | – | CC(C)n1nc(-c2ccc(C(F)(F)F)nc2)nc1[C@H]1[C@@H]2C[C@H](N3CCCOCC3)C[C@@H]21 [Compound 15, 4-((1R,3r,5S,6r)-6-(1-isopropyl-3-(6-(trifluoromethyl)pyridin-3-yl)-1H-1,2,4-triazol-5-yl)bicyclo[3.1.0]hexan-3-yl)-1,4-oxazepane] | – | –
23 | – | 5.88 nM | 16.6 nM | – | – | CC(C)n1nc(-c2cncc(C(F)(F)F)c2)cc1[C@H]1[C@@H]2C[C@H](N3CCOCC3)C[C@@H]21 [Compound 171, 4-((1R,3r,5S,6r)-6-(1-Isopropyl-3-(5-(trifluoromethyl)pyridin-3-yl)-1H-pyrazol-5-yl)bicyclo[3.1.0]hexan-3-yl)morpholine] | – | –
24 | – | 4.76 nM | 21.6 nM | – | – | CC(C)n1nc(-c2cc(C(F)(F)F)ncn2)cc1[C@H]1[C@@H]2C[C@@H](N3CCOC[C@H]3C)C[C@@H]21 [Compound 202, (R)-4-((1R,3s,5S,6R)-6-(1-isopropyl-3-(6-(trifluoromethyl)pyrimidin-4-yl)-1H-pyrazol-5-yl)bicyclo[3.1.0]hexan-3-yl)-3-methylmorpholine] | – | –
25 | 22.6 nM | 2.86 nM | 7.75 nM | – | – | CC(C)n1nc(-c2cncc(C(F)(F)F)c2)cc1[C@H]1[C@@H]2C[C@H](N3CCO[C@@H](C)C3)C[C@@H]21 (single isomer, unassigned) [41*] | – | –
26 | – | 1.74 nM | 4.16 nM | – | – | CC(C)n1nc(-c2cccc(OC(F)(F)F)c2)nc1[C@H]1[C@@H]2C[C@H](N3CCCOCC3)C[C@@H]21 [Compound 17, 4-((1R,3r,5S,6r)-6-(1-isopropyl-3-(3-(trifluoromethoxy)phenyl)-1H-1,2,4-triazol-5-yl)bicyclo[3.1.0]hexan-3-yl)-1,4-oxazepane] | – | –
27 | 10.9 nM | 1.33 nM | 6.73 nM | – | – | CC(C)n1nc(-c2cccc(C(F)(F)F)c2)nc1[C@@H]1CC[C@H](N2CCOCC2)C1 (single isomer, unassigned) [22*] | – | –
